Patent publication US20070213346A1, “Substituted 4-Alkyl-And 4-Alkanoyl-Piperidine Derivatives And Their Use As Neurokinin Antagonists” (priority 2004, published 2007)

Tests used:
Assay type in all cases: cell-based
NK3 = target: T1, NK3 (Homo sapiens, UniProt P29371); assay: Signal transduction (ST), intracellular Ca++ FLIPR, NK3; details: antagonist, Ca++ transient peak, read-out: NK3 pIC50 (converted)
T1 sequence (P29371 1-465): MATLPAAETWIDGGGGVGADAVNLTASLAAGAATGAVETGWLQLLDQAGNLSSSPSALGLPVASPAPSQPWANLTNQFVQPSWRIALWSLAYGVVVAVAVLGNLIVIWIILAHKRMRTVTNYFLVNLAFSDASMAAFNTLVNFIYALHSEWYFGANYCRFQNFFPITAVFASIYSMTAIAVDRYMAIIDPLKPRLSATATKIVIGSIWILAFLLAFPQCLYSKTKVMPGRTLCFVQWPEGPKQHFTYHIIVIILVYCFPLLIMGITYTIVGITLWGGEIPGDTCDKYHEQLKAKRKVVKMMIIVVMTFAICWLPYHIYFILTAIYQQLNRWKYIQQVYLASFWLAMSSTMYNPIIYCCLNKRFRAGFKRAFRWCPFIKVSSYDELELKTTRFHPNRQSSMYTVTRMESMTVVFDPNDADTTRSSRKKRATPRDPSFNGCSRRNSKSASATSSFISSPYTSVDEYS
Method: [The source words this procedure for another target and reports this target under the same test.] (§1) This test evaluates in vitro functional NK1 antagonistic activity. For the measurements of intracellular Ca^++ concentrations the cells were grown on 96-well (black wall/transparent bottom) plates from Costar for 2 days until they reached confluence. The cells were loaded with 2 μM Fluo3 in DMEM containing 0.1% BSA and 2.5 mM probenecid for 1 h at 37° C. They were washed 3× with a Krebs buffer (140 mM NaCl, 1 mM MgCl2x6H2O, 5 mM KCl, 10 mM glucose, 5 mM HEPES; 1.25 mM CaCl2; pH 7.4) containing 2.5 mM probenecid and 0.1% BSA (Ca^++-buffer). The cells were preincubated with a concentration range of antagonists for 20 min at RT and Ca^++-signals after addition of the agonists were measured in a Fluorescence Image Plate Reader (FLIPR from Molecular Devices, Crawley, England). The peak of the Ca^++-transient was considered as the relevant signal and the mean values of corresponding wells were analysed as described below.
(§2) The sigmoidal dose response curves were analysed by computerised curve-fitting, using the GraphPad program. The EC50-value of a compound is the effective dose showing 50% of maximal effect. For mean curves the response to the agonist with the highest potency was normalised to 100%. For antagonist responses the IC50-value was calculated using non-linear regression.
(§3) The last columns indicates—without being limited thereto—for which use the compounds might be most suitable. Of course, since for some neurokinin receptors no data was determined, it is obvious that these compounds might be attributed to another suitable use.

NK1 = NK1 (Homo sapiens, UniProt P25103); assay: Signal transduction (ST), intracellular Ca++ FLIPR, NK1; details: antagonist, Ca++ transient peak, read-out: NK1 pIC50 (converted)
NK1, sequence (P25103 whole entry): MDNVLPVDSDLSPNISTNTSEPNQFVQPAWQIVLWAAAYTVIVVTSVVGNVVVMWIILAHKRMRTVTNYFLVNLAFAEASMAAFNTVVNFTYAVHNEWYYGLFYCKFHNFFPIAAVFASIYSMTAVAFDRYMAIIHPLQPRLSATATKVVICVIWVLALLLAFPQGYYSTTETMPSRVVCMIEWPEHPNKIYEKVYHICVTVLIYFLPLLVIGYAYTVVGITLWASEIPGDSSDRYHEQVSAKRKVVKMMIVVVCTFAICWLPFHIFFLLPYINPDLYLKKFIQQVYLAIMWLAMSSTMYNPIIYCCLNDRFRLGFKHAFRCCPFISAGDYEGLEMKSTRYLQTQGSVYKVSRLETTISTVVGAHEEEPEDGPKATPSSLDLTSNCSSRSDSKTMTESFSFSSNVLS
Method: as §1
as §2, with “regression. […]” for “regression.”

NK2 = target: T2, NK2 (Homo sapiens, UniProt P21452); assay: Signal transduction (ST), intracellular Ca++ FLIPR, NK2; details: antagonist, Ca++ transient peak, read-out: NK2 pIC50 (converted)
T2 sequence (P21452 1-398): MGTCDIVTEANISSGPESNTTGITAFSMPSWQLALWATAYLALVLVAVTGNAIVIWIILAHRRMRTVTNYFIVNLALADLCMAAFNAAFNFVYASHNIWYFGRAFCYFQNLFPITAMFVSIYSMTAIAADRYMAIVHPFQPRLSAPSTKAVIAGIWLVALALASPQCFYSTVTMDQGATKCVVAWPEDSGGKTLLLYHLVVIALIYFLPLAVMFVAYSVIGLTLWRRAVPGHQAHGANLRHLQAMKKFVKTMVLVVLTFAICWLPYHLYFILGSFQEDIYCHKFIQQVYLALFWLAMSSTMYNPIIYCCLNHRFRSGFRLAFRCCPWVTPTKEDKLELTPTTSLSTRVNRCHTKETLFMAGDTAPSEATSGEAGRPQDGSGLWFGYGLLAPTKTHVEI
Method: [The source words this procedure for another target and reports this target under the same test.] as §1, §2, §3

IC50 (NK3)	IC50 (NK1)	IC50 (NK2)	SMILES
> 10000 nM	174 nM	–	CC(C)(C)OC(=O)N1CCC(N2CCN(C(=O)CC3CCN(C(=O)c4cc(C(F)(F)F)cc(C(F)(F)F)c4)[C@@H](Cc4ccccc4)C3)CC2)C1 (mixture of isomers) [Compound 7]
> 10000 nM	41.7 nM	–	O=C(CC1CCN(C(=O)c2cc(C(F)(F)F)cc(C(F)(F)F)c2)[C@@H](Cc2ccccc2)C1)N1CCN(C2CCN(C(=O)C3CCOC3)C2)CC1 (mixture of isomers) [Compound 73]
–	91.2 nM	–	O=C(c1cc2ccccc2oc1=O)N1CCC(N2CCN(C[C@H]3CCN(C(=O)c4cc(C(F)(F)F)cc(C(F)(F)F)c4)[C@H](Cc4ccccc4)C3)CC2)CC1 (relative stereo) [Compound 50]
> 10000 nM	347 nM	–	O=C(C1CCN(C(=O)c2cc(C(F)(F)F)cc(C(F)(F)F)c2)C(Cc2ccccc2)C1)N1CCN(C2CCN(Cc3ccccc3)CC2)CC1 (centres unmarked) [Compound 3]
> 10000 nM	251 nM	–	O=C(C1CCN(C(=O)c2cc(C(F)(F)F)cc(C(F)(F)F)c2)C(Cc2ccccc2)C1)N1CCN(C2CCNCC2)CC1 (centres unmarked) [Compound 4]
> 10000 nM	209 nM	–	CC(C)(C)OC(=O)N1CCC(N2CCN(CC3CCN(C(=O)c4cc(C(F)(F)F)cc(C(F)(F)F)c4)C(Cc4ccccc4)C3)CC2)CC1 (centres unmarked) [Compound 5]
> 10000 nM	302 nM	–	O=C(CC1CCN(C(=O)c2cc(C(F)(F)F)cc(C(F)(F)F)c2)C(Cc2ccccc2)C1)N1CCN(C2CCNC2)CC1 (centres unmarked) [Compound 8]
–	316 nM	–	Cc1cc(C)cc(C(=O)N2CCC(N3CCN(CC4CCN(C(=O)c5cc(C(F)(F)F)cc(C(F)(F)F)c5)C(Cc5ccccc5)C4)CC3)CC2)c1 (centres unmarked) [Compound 12]
2510 nM	13.2 nM	–	O=C(C1CCN(C(=O)c2cc(C(F)(F)F)cc(C(F)(F)F)c2)C(Cc2ccccc2)C1)N1CCN(C2CCN(S(=O)(=O)c3cccs3)C2)CC1 (centres unmarked) [Compound 13]
–	138 nM	–	O=C(c1ccc2ccccc2n1)N1CCC(N2CCN(CC3CCN(C(=O)c4cc(C(F)(F)F)cc(C(F)(F)F)c4)C(Cc4ccccc4)C3)CC2)CC1 (centres unmarked) [Compound 16]
–	224 nM	–	Cn1cccc1C(=O)N1CCC(N2CCN(CC3CCN(C(=O)c4cc(C(F)(F)F)cc(C(F)(F)F)c4)C(Cc4ccccc4)C3)CC2)CC1 (centres unmarked) [Compound 33]
–	209 nM	–	Cn1cccc1C(=O)N1CCC(N2CCN(C[C@H]3CCN(C(=O)c4cc(C(F)(F)F)cc(C(F)(F)F)c4)[C@H](Cc4ccccc4)C3)CC2)CC1 [Compound 34]
–	46.8 nM	–	Cc1cc(C(=O)N2CCC(N3CCN(C[C@H]4CCN(C(=O)c5cc(C(F)(F)F)cc(C(F)(F)F)c5)[C@H](Cc5ccccc5)C4)CC3)CC2)no1 [Compound 36]
–	347 nM	–	Cn1cc(C(=O)N2CCC(N3CCN(CC4CCN(C(=O)c5cc(C(F)(F)F)cc(C(F)(F)F)c5)C(Cc5ccccc5)C4)CC3)CC2)c2ccccc21 (centres unmarked) [Compound 40]
–	166 nM	–	Cc1cccc(C(=O)N2CCC(N3CCN(C[C@H]4CCN(C(=O)c5cc(C(F)(F)F)cc(C(F)(F)F)c5)[C@H](Cc5ccccc5)C4)CC3)CC2)c1 [Compound 41]
–	123 nM	–	O=C(c1ccccc1O)N1CCC(N2CCN(CC3CCN(C(=O)c4cc(C(F)(F)F)cc(C(F)(F)F)c4)C(Cc4ccccc4)C3)CC2)CC1 (centres unmarked) [Compound 43]
–	87.1 nM	–	O=C(c1cccc(O)c1)N1CCC(N2CCN(CC3CCN(C(=O)c4cc(C(F)(F)F)cc(C(F)(F)F)c4)C(Cc4ccccc4)C3)CC2)CC1 (centres unmarked) [Compound 44]
–	204 nM	–	O=C(c1ccccn1)N1CCC(N2CCN(C[C@H]3CCN(C(=O)c4cc(C(F)(F)F)cc(C(F)(F)F)c4)[C@H](Cc4ccccc4)C3)CC2)CC1 [Compound 47]

IC50 (NK3)	IC50 (NK1)	IC50 (NK2)	SMILES
–	25.7 nM	> 10000 nM	O=C(c1cccnc1)N1CCC(N2CCN(C[C@H]3CCN(C(=O)c4cc(C(F)(F)F)cc(C(F)(F)F)c4)[C@H](Cc4ccccc4)C3)CC2)CC1 [Compound 48]
–	120 nM	–	O=C(Cc1c[nH]cn1)N1CCC(N2CCN(CC3CCN(C(=O)c4cc(C(F)(F)F)cc(C(F)(F)F)c4)C(Cc4ccccc4)C3)CC2)CC1 (centres unmarked) [Compound 51]
–	85.1 nM	–	COc1cc(CC(=O)N2CCC(N3CCN(CC4CCN(C(=O)c5cc(C(F)(F)F)cc(C(F)(F)F)c5)C(Cc5ccccc5)C4)CC3)CC2)cc(OC)c1OC (centres unmarked) [Compound 53]
2450 nM	22.9 nM	–	O=C(c1ccoc1)N1CCC(N2CCN(C(=O)[C@H]3CCN(C(=O)c4cc(C(F)(F)F)cc(C(F)(F)F)c4)[C@H](Cc4ccccc4)C3)CC2)CC1 [Compound 57]
> 10000 nM	8.71 nM	–	Cc1nnsc1C(=O)N1CCC(N2CCN(C(=O)[C@H]3CCN(C(=O)c4cc(C(F)(F)F)cc(C(F)(F)F)c4)[C@H](Cc4ccccc4)C3)CC2)CC1 [Compound 58]
9550 nM	10.7 nM	–	O=C(c1ccccc1)N1CCC(N2CCN(C(=O)[C@H]3CCN(C(=O)c4cc(C(F)(F)F)cc(C(F)(F)F)c4)[C@H](Cc4ccccc4)C3)CC2)CC1 [Compound 59]
6760 nM	214 nM	–	O=C([C@H]1CCN(C(=O)c2cc(C(F)(F)F)cc(C(F)(F)F)c2)[C@H](Cc2ccccc2)C1)N1CCN(C2CCNC2)CC1 (some centres unmarked) [Compound 66]
> 10000 nM	75.9 nM	–	O=C([C@H]1CCN(C(=O)c2cc(C(F)(F)F)cc(C(F)(F)F)c2)[C@H](Cc2ccccc2)C1)N1CCN(C2CCN(Cc3ccccc3)C2)CC1 (some centres unmarked) [Compound 67]
6610 nM	13.2 nM	–	O=C(C1CC1)N1CCC(N2CCN(C(=O)[C@H]3CCN(C(=O)c4cc(C(F)(F)F)cc(C(F)(F)F)c4)[C@H](Cc4ccccc4)C3)CC2)C1 (some centres unmarked) [Compound 68]
6030 nM	39.8 nM	–	O=C(C1CCOC1)N1CCC(N2CCN(C(=O)[C@H]3CCN(C(=O)c4cc(C(F)(F)F)cc(C(F)(F)F)c4)[C@H](Cc4ccccc4)C3)CC2)C1 (some centres unmarked) [Compound 69]
> 10000 nM	25.7 nM	–	O=C(c1ccoc1)N1CCC(N2CCN(C(=O)[C@H]3CCN(C(=O)c4cc(C(F)(F)F)cc(C(F)(F)F)c4)[C@H](Cc4ccccc4)C3)CC2)C1 (some centres unmarked) [Compound 70]
> 10000 nM	31.6 nM	–	O=C(c1ccccc1Cl)N1CCC(N2CCN(C(=O)[C@H]3CCN(C(=O)c4cc(C(F)(F)F)cc(C(F)(F)F)c4)[C@H](Cc4ccccc4)C3)CC2)C1 (some centres unmarked) [Compound 72]
> 10000 nM	200 nM	–	COC1(CN2CCN(C3CCNC3)CC2)CCN(C(=O)c2cc(C(F)(F)F)cc(C(F)(F)F)c2)C(Cc2ccccc2)C1 (centres unmarked) [Compound 81]
> 10000 nM	64.6 nM	–	COC1(CN2CCN(C3CCN(C(=O)c4ccoc4)C3)CC2)CCN(C(=O)c2cc(C(F)(F)F)cc(C(F)(F)F)c2)C(Cc2ccccc2)C1 (centres unmarked) [Compound 85]
10200 nM	67.6 nM	–	COC1(CN2CCN(C3CCN(C(=O)c4snnc4C)C3)CC2)CCN(C(=O)c2cc(C(F)(F)F)cc(C(F)(F)F)c2)C(Cc2ccccc2)C1 (centres unmarked) [Compound 86]
> 10000 nM	115 nM	–	COC1(CN2CCN(C3CCN(C(=O)c4ccccc4)C3)CC2)CCN(C(=O)c2cc(C(F)(F)F)cc(C(F)(F)F)c2)C(Cc2ccccc2)C1 (centres unmarked) [Compound 87]
> 10000 nM	61.7 nM	–	COC1(CN2CCN(C3CCN(C(=O)c4cccnc4)C3)CC2)CCN(C(=O)c2cc(C(F)(F)F)cc(C(F)(F)F)c2)C(Cc2ccccc2)C1 (centres unmarked) [Compound 88]
3550 nM	60.3 nM	–	COC1(CN2CCN(C3CCN(S(=O)(=O)c4c(C)noc4C)C3)CC2)CCN(C(=O)c2cc(C(F)(F)F)cc(C(F)(F)F)c2)C(Cc2ccccc2)C1 (centres unmarked) [Compound 89]
